# From patent publication US10640544B2, “Antibody-coupled cyclic peptide tyrosine tyrosine compounds as modulators of neuropeptide Y receptors” (JANSSEN PHARMACEUTICA NV, priority 2016, dated 2020)
# Columns and labels:
# [1] = Single dose effect on food intake and body weight in Sprague-Dawley rats; format: in vivo, rat; parameters: body weight change: unit not given here; conditions: single dose 0.3 nmol/kg s.c.
# Protocol: Compound 1 was evaluated for its ability to reduce foot intake and body weight in Sprague-Dawley after a single dose. The animals were obtained from Charles River Labs (Wilmington, Mass.) at 200-225 g body weight and used within one week of delivery. They were housed one per cage on alpha dry bedding and a plastic tube for enrichment in a temperature-controlled room with 12-hour light/dark cycle. […] Animal weights were taken and recorded for each rat prior to dosing.
# Body weights and food intake were measured 1, 2 and 3 days after dosing and the percentages of weight loss and reduction in food intake were calculated. […] All data are presented as the mean±SEM (Tables 18-20).
# [2] = Weight loss in diet-induced obese mice: chronic dosing (body weight, fed blood glucose); format: in vivo, mouse; conditions: DIO mice, after 8 days of treatment; 0.3 nmol/kg s.c. every day
# Protocol: (§1) Compound 1 was evaluated for its ability to reduce foot intake and body weight and improve glucose homeostasis on repeat dosing in male DIO C57Bl/6 mice over a period of 8 days. Male DIO C57BL/6N mice (20 weeks of age, 14 weeks on high fat diet) were obtained from Taconic Laboratory. […] Animals were acclimated to the facility for at least one week prior to the start of the experiment.
# (§2) The day prior to dosing, mice were grouped based on individual body weights. At 3:00-4:[…] for each of the next 8 days, animals and food intake were weighed. […] After 8 days, mice are fasted for 5 hours and then given a 2 g/kg bolus of glucose orally at t=0. At t=0, 30, 60, 90, and 120 minutes post glucose challenge blood glucose is measured and at t=0, 30, and 90 minutes blood in drawn to measure plasma insulin. […] All data are presented as the mean±SEM (FIG. 7, FIG. 8, and Tables 8-11).
# [3] = OGTT in DIO mice after 8 days of treatment (blood glucose, insulin); format: in vivo, mouse; conditions: 8 days treatment, 0.3 nmol/kg s.c. every day
# Protocol: as §1, §2
substance,measurement,setting,value
"Dulaglutide: long-acting GLP-1 receptor agonist, comparator",Total Food Consumption over three days,[1],87.4 ± 2.0
same,body weight change,[1]; Day 0,0.0 ± 0.0
same,daily food intake,[1]; Day 0,26.6 ± 0.8
same,absolute body weight,"[1]; Day 0, in g (unit assumed)",270.3 ± 3.0
same,body weight change,[1]; Day 1,10.6 ± 1.6
same,daily food intake,[1]; Day 1,27.3 ± 1.2
same,absolute body weight,"[1]; Day 1, in g (unit assumed)",280.8 ± 4.2
same,body weight change,[1]; Day 2,22.5 ± 0.8
same,daily food intake,[1]; Day 2,30.0 ± 0.7
same,absolute body weight,"[1]; Day 2, in g (unit assumed)",292.47 ± 3.6
same,body weight change,[1]; Day 3,28.7 ± 0.6
same,daily food intake,[1]; Day 3,30.1 ± 0.7
same,absolute body weight,"[1]; Day 3, in g (unit assumed)",299.0 ± 3.3
same,body weight change,[1]; Day −1 (relative to Day 0),−6.3 ± 0.8
same,absolute body weight,"[1]; Day −1, in g (unit assumed)",264.0 ± 3.1
same,fed Blood Glucose,[2],114 ± 13 mg/dL
same,blood glucose Delta AUC (OGTT),[3],6668 ± 1846 mg/dl/120 min
same,blood glucose Total AUC (OGTT),[3],15758 ± 1054 mg/dl/120 min
same,blood glucose during OGTT,[3]; 0 min after glucose challenge,76 ± 9 mg/dL
same,insulin during OGTT,[3]; 0 min after glucose challenge,0.6 ± 0.1 ng/mL
same,blood glucose during OGTT,[3]; 30 min after glucose challenge,151 ± 14 mg/dL
same,insulin during OGTT,[3]; 30 min after glucose challenge,1.7 ± 0.2 ng/mL
same,blood glucose during OGTT,[3]; 60 min after glucose challenge,174 ± 17 mg/dL
same,blood glucose during OGTT,[3]; 90 min after glucose challenge,104 ± 10 mg/dL
same,insulin during OGTT,[3]; 90 min after glucose challenge,0.7 ± 0.2 ng/mL
same,blood glucose during OGTT,[3]; 120 min after glucose challenge,119 ± 9 mg/dL
